Assay results taken from US20120258971A1, “THERAPEUTIC AGENT FOR CHRONIC PAIN” (OTSUKA PHARMACEUTICAL CO., LTD., priority 2009, published 2012).
Structures can show the parent of a compound that is named as a salt.

Tested on: chronic occipital-cervical pain
Experiment: Pain intensity (numerical rating scale, NRS) in a chronic pain patient during drug treatment
Type: in vivo, human
Details: for Effect on pain of the chronic pain patient (in words): single chronic pain patient, oral administration, overall conclusion
Experimental: Morphine, fluvoxamine, aripiprazole, and other drugs were administered for about 11 months to a patient who was diagnosed as a chronic pain sufferer with chronic occipital-cervical pain that had continued for ten years or more. The intensity of the pain in the patients' occipital-cervical region (neck) was evaluated over time.
The intensity of pain was evaluated using a numerical rating scale (NRS) in which pain was orally reported on an 11-step scale (0 to 10). This evaluation method numerically expresses (quantifies) the degree of pain on a scale of 0 (no pain) to 10 (worst conceivable pain). This method provides a good reflection of the degree of pain of a patient before and after treatment.
From the 4th week of the first month, in addition to morphine, oral administration of fluvoxamine (Depromel tablets; produced by Meiji Seika Pharma Co., Ltd.) in a dose of 50 mg/day was started.
Then, from the 4th week of the 4th month, aripiprazole (Abilify tablets; produced by Otsuka Pharmaceutical Co., Ltd.) was orally administered in a dose of 3 mg/day. […] Furthermore, even when the administration of morphine was stopped from the 8th month, the NRS value remained at 0.
Thereafter, when the dose of aripiprazole (Abilify tablets; produced by Otsuka Pharmaceutical Co., Ltd.) was increased to 9 mg/day after the 4th week of the 9th month, and further increased to 12 mg/day after the 4th week of the 10th month, the NRS value was 0, and no change was observed.

In the case of `CN1CC[C@]23c4c5ccc(O)c4O[C@H]2[C@@H](O)C=C[C@H]3[C@H]1C5` [morphine hydrochloride tablets], the “Effect on pain of the chronic pain patient (in words)” value (“Effect on pain” for short) is reported as “the pain was not relieved”.
`COCCCC/C(=N\OCCN)c1ccc(C(F)(F)F)cc1` [fluvoxamine] was tested, and the “Effect on pain” value was “the pain was not relieved at all”.
In the case of `O=C1CCc2ccc(OCCCCN3CCN(c4cccc(Cl)c4Cl)CC3)cc2N1` [aripiprazole, 7-{4-[4-(2,3-dichlorophenyl)-1-piperazinyl]butoxy}-3,4-dihydrocarbostyril], the NRS value (aripiprazole 3 mg/day oral from 4th week of 4th month, first week of the 5th month) is reported as 1, the NRS value (aripiprazole 3 mg/day oral, from the second week of the 6th month) is reported as 0 and the NRS value (aripiprazole increased to 9 mg/day (after 4th week of 9th month) and 12 mg/day (after 4th week of 10th month)) is reported as 0. For the same compound, the NRS value (aripiprazole, after morphine was stopped from the 8th month) was 0 and the “Effect on pain” value was “could dramatically reduce the pain”.
